The test system of data set [1] is Staphylococcus aureus ATCC 6538P. As to the kind of experiment: Antibacterial activity, agar dilution method (pH 7.0). It counts as cell-based. The following applies: ATCC6538P, read-out: Minimum Inhibitory Concentration. As for the experimental part:
(§1) The minimum inhibitory concentration (MIC) against various bacteria was determined by the agar dilution method (pH 7.0).
For orientation: In agar dilution the substance is mixed into plates at graded concentrations.

Data set [2] deals with Escherichia coli ATCC 26. The data set is described as above. It counts as cell-based. To be noted: ATCC26, read-out: Minimum Inhibitory Concentration. As for the experimental part: as §1
For data set [3], the system named is Klebsiella pneumoniae ATCC 10031. Described as above. It counts as cell-based. The following applies: ATCC10031, read-out: Minimum Inhibitory Concentration. As for the experimental part:
as §1

The test system of data set [4] is Salmonella typhi ATCC 9992. The description is as above. In kind it is cell-based. To be noted: Salmonella enterica, pH 7, read-out: Minimum Inhibitory Concentration. As for the experimental part:
as §1

For data set [5], the system named is Bacillus subtilis No. 10707. Described as above. It counts as cell-based. The following applies: read-out: Minimum Inhibitory Concentration. The protocol: as §1
Data set [6] concerns tumor cells. The data set can be described thus: Growth inhibition of tumor cells, overall result of (B) and (C). It counts as cell-based. The following applies: from the results of (B) and (C). The protocol:
(§2) A T24 cell suspension ([…]) prepared by suspending T24 cells in a medium comprising F10 medium (GIBCO Co., Ltd.), […] fetal calf serum, 100 units/ml penicillin and 100 μg/ml streptomycin (hereinafter referred to as medium A) was put into wells of a 96-well microtiter plate in an amount of 0.1 ml per well. After incubation at 37° C. for 20 hours in a […], 0.05 ml of a sample appropriately diluted with medium A was added to each well. The cells were further cultured at 37° C. for 72 hours in the CO2 -incubator and the culture supernatant was removed. To the residue was added a medium comprising medium A and 0.02% Neutral Red in an amount of 0.1 ml per well, followed by culturing at 37° C. for one hour in the CO2 -incubator, whereby the cells were stained. After the culture supernatant was removed, the residue was washed once with physiological saline.
(§3) Then, the pigment was extracted with 0.001N hydrochloric acid/30% ethanol and absorbance at 550 nm was measured with a microplate reader. By comparing the absorbance of intact cells with those of the cells treated with a test compound at known concentrations, the concentration of the test compound at which the growth of the cells is inhibited by 50% (IC50) was determined.
(§4) IC50 was determined in the same manner as in the case of T24 cells except that a suspension of HeLaS3 cells (3×10^4 cells/ml) prepared by suspending HeLaS3 cell medium comprising MEM medium (Nissui Pharmaceutical Co., Ltd.) and 2 mM glutamine was used.

Data set [7] relates to T24 cells. As to the kind of experiment: Growth inhibition against T24 cells (Neutral Red staining). In kind it is cell-based. To be noted: Homo sapiens, T-24, 72 hours. As for the experimental part: as §2, §3
Data set [8] concerns HeLaS3 cells. The data set can be described thus: Growth inhibition against HeLaS3 cells. In kind it is cell-based. The following applies: Homo sapiens, HeLa S3, 72 hours. As for the experimental part: as §2, §3, §4
Data set [9] can be described thus: Solubility. In kind it is physicochemical.
[10] abbreviates: chloroform, dimethylsulfoxide, methanol, ethyl acetate and acetone.

≈ marks a conversion by molar mass, not a printed value.

As usually defined, the IC50 is the midpoint of a concentration-inhibition curve. Read a low IC50 as greater potency in that assay.

Consider `CCCC1OC1(C)c1cc(=O)c2c(CC(=O)O)cc3cc4c(c(O)c3c2o1)C(=O)CCC4OC(C)=O` (stereo not drawn) [DC115A1], for which the MIC in data set [1] was 5.2 µg/mL (≈ 10.5 µM); in [2], more than 100 µg/mL; in data set [3] it was more than 100 µg/mL; in data set [4], more than 100 µg/mL; in data set [5], 10 µg/mL (≈ 20.2 µM). Besides, the “inhibition of growth of tumor cells” value in data set [6] was “inhibit the growth of tumor cells”. For the same compound, the results for the IC50 in data set [7] and in data set [8] were 0.17 µg/mL (≈ 0.344 µM) and 0.22 µg/mL (≈ 0.445 µM), respectively. The Solubility result is recorded as “Soluble” in data set [9] (setting [10]); “sparingly soluble” in data set [9] (water and n-hexane).
With `CCC1OC1(C)c1cc(=O)c2c(CC(=O)O)cc3cc4c(c(O)c3c2o1)C(=O)CCC4OC(C)=O` (stereo not drawn) [DC115A2], the MIC is 2.6 µg/mL (≈ 5.41 µM) in [1]; 83 µg/mL (≈ 173 µM) in data set [2]; 10 µg/mL (≈ 20.8 µM) in data set [3]; more than 100 µg/mL in data set [4]; 10 µg/mL (≈ 20.8 µM) in data set [5]. Further, the “inhibition of growth of tumor cells” value in [6] was “inhibit the growth of tumor cells”. The IC50 turned out to be 0.11 µg/mL (≈ 0.229 µM) in data set [7] and 0.19 µg/mL (≈ 0.395 µM) in [8]. The Solubility entry is “Soluble” in data set [9] (setting [10]); “sparingly soluble” in data set [9] (water and n-hexane).
As to `CC=CC1OC1(C)c1cc(=O)c2c(CC(=O)O)cc3cc4c(c(O)c3c2o1)C(=O)CCC4OC(C)=O` (stereo not drawn) [DC115A3], the MIC in data set [1] amounted to 0.3 µg/mL (≈ 0.609 µM); in data set [2], 21 µg/mL (≈ 42.6 µM); in data set [3] it was 5.2 µg/mL (≈ 10.6 µM); in data set [4] it was 83 µg/mL (≈ 169 µM); in [5] it was 1.3 µg/mL (≈ 2.64 µM). The “inhibition of growth of tumor cells” value in data set [6] is reported as “inhibit the growth of tumor cells”. For the same compound, the IC50 was 0.14 µg/mL (≈ 0.284 µM) in [7] and 0.42 µg/mL (≈ 0.853 µM) in [8]. Also, the Solubility entry in data set [9] (setting [10]) is on record as “Soluble”; in data set [9] (water and n-hexane) it was “sparingly soluble”.

For the origin of these results see patent publication US5066817A, “DC115A compounds produced by streptomyces sp” (Kyowa Hakko Kogyo Co., Ltd., priority 1989, dated 1991).
